Laboratory results taken from patent US20220396577A1, “NOVEL SUBSTITUTED 1,3-8-TRIAZASPIRO[4,5] DECANE-2,4-DIONE COMPOUNDS AS INDOLEAMINE 2,3-DIOXYGENASE (IDO) AND/OR TRYPTOPHAN 2,3-DIOXYGENASE (TDO) INHIBITORS” (Merck Sharp & Dohme LLC, priority 2019, published 2022).

Assays:
CDK2 = CDK2 (Homo sapiens, UniProt P24941); assay: Off-target kinase panel, ZLYTE: CDK2; format: biochemical; conditions: read-out: Estimated IC50 (uM) CDK2
Text: (§1) The activity data was obtained in a panel of 265 and 264 for compounds 1-1 and CC-1, respectively, using the ZLYTE and ADAPTA assay methods indicated in the table below.
(§2) The ZLYTE biochemical assay employs a fluorescence-based, coupled-enzyme format and is based on the differential sensitivity of phosphorylated and non-phosphorylated peptides to proteolytic cleavage. The peptide substrate is labeled with two fluorophores—one at each end—that make up a Fluorescence Resonance Energy Transfer (FRET) pair.
(§3) In the primary reaction, the kinase transfers the gamma-phosphate of ATP to a single tyrosine, serine or threonine residue in a synthetic FRET-peptide. In the secondary reaction, a site-specific protease recognizes and cleaves non-phosphorylated FRET-peptides. Phosphorylation of FRET-peptides suppresses cleavage by the Development Reagent. […] A ratiometric method, which calculates the ratio (the Emission Ratio) of donor emission to acceptor emission after excitation of the donor fluorophore at 400 nm, is used to quantitate reaction progress, as shown in the equation below. […]
(§4) Both cleaved and uncleaved FRET-peptides contribute to the fluorescence signals and therefore to the Emission Ratio. The extent of phosphorylation of the FRET-peptide can be calculated from the Emission Ratio. […]
(§5) 10. Read on fluorescence plate reader and analyze the data.

FLT3(D835Y) = biological target: T1, FLT3(D835Y) (Homo sapiens, UniProt P36888, D835Y); assay: Off-target kinase panel, ZLYTE: FLT3(D835Y); format: biochemical; conditions: read-out: Estimated IC50 (uM) FLT3(D835Y)
T1 sequence (P36888 27-993 D835Y): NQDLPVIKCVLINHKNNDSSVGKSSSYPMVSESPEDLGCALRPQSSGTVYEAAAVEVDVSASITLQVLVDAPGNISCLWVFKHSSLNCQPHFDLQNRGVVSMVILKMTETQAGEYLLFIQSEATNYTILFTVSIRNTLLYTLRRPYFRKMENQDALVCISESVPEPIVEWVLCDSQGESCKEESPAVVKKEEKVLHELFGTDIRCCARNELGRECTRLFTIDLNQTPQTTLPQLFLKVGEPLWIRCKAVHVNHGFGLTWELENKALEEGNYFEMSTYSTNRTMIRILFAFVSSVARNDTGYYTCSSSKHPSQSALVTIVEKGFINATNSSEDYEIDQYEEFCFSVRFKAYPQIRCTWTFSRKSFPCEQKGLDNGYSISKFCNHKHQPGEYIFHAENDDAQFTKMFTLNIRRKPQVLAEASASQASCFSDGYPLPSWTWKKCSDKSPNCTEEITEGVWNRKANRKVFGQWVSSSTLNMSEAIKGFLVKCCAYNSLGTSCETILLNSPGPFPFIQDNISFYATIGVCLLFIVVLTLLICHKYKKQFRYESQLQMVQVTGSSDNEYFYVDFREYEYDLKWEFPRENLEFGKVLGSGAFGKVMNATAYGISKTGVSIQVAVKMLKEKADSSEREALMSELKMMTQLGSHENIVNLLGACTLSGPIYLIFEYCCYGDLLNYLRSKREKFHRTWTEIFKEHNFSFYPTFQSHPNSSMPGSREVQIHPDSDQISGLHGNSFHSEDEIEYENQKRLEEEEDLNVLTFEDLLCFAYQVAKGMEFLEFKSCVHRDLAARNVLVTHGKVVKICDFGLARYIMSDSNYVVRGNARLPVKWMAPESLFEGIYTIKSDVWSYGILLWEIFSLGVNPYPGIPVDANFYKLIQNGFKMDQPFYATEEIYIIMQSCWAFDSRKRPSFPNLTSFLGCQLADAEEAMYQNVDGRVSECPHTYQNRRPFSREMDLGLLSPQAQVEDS
Text: as §1, §2, §3, §4, §5

IC50 (CDK2) [µM] | IC50 (FLT3(D835Y)) [µM] | SMILES
> 2 | – | C[C@@H]1CN(c2cc(Br)cc3[nH]ncc23)CC[C@]12NC(=O)NC2=O (single isomer, unassigned) [Compound 1-1]
1.5 | 1.5 | O=C1NC(=O)C2(CCN(c3cc(Cl)cc4[nH]ncc34)CC2)N1 [CC-1]
